Measured values: article PMC7614683, “A small molecule PI3Kα activator for cardioprotection and neuroregeneration” (Nature, 2023)
Like-named read-outs stand apart in the source and are kept apart here.

Tests used:
Assay in all cases: SelectScreen Z-LYTE kinase activity assay (SI Table 6)
Format in all cases: biochemical
[1] = target: protein kinases of the Z-LYTE panel (Homo sapiens, UniProt P22455)
In short: (§1)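 Compound 1938 counterscreened at 1 μM against 133 protein and 7 lipid kinases in the SelectScreen panel, using Adapta, LanthaScreen binding and Z-LYTE formats as applicable.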

[2] = target: T1, protein kinases of the Z-LYTE panel (Homo sapiens, UniProt P51813)
T1 sequence (P51813 1-675): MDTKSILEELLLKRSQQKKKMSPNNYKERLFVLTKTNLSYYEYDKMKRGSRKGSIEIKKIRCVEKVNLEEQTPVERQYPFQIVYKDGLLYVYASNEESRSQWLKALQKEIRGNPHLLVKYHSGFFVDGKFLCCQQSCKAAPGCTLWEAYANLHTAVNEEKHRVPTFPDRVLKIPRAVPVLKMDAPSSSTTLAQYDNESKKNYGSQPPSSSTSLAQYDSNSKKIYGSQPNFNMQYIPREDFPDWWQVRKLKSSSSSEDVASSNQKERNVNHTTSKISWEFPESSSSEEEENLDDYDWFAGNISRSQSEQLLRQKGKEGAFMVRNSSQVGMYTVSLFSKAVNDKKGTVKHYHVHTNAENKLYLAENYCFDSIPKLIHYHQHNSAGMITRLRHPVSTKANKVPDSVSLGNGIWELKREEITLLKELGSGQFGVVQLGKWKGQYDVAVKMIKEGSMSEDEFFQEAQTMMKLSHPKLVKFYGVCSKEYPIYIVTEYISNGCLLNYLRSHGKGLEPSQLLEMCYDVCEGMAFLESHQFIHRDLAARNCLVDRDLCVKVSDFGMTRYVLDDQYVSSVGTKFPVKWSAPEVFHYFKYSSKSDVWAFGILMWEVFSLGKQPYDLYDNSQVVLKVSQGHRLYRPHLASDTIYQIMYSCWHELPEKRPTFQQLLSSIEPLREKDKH
In short: as §1

[3] = target: protein kinases of the Z-LYTE panel (Homo sapiens, UniProt Q8N4C8)
In short: as §1

[4] = target: protein kinases of the Z-LYTE panel (Homo sapiens, UniProt Q04759)
In short: as §1

[5] = target: T2, protein kinases of the Z-LYTE panel (Homo sapiens, UniProt Q9NWZ3)
T2 sequence (Q9NWZ3 1-460): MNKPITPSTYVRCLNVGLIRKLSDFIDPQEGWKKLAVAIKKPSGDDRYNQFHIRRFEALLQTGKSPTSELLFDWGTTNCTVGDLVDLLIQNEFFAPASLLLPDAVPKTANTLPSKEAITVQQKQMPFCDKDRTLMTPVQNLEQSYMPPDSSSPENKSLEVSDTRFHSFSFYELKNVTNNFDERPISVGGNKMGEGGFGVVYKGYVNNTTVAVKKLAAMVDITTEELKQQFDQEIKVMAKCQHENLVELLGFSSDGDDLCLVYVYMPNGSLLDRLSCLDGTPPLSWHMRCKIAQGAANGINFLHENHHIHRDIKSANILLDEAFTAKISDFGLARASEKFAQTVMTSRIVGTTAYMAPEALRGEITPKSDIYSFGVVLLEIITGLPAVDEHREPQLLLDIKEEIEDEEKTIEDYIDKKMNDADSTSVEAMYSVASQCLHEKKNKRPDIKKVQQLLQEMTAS
In short: as §1

Chain of protein kinases of the Z-LYTE panel (Homo sapiens, UniProt P22455) (P22455 22-802): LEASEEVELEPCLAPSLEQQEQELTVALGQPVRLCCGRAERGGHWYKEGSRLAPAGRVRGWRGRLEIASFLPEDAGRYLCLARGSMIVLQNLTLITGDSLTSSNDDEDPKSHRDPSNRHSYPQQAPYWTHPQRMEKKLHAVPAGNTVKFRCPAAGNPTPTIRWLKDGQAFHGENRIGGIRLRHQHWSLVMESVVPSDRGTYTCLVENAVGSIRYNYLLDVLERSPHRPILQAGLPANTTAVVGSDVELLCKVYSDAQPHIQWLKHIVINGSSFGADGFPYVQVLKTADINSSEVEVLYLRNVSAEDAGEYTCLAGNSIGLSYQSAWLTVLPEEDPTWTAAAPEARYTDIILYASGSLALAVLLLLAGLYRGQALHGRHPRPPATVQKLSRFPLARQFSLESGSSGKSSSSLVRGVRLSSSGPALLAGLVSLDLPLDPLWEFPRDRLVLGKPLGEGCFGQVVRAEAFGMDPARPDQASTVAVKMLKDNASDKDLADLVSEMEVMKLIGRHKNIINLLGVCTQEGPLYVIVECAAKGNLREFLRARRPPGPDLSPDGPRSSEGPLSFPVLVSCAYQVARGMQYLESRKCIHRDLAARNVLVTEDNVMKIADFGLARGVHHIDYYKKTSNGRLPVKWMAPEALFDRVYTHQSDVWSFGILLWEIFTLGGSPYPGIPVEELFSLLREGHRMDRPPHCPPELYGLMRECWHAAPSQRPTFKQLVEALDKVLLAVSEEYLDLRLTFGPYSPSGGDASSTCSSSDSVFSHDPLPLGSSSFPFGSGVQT
Chain of protein kinases of the Z-LYTE panel (Homo sapiens, UniProt Q8N4C8) (Q8N4C8 whole entry): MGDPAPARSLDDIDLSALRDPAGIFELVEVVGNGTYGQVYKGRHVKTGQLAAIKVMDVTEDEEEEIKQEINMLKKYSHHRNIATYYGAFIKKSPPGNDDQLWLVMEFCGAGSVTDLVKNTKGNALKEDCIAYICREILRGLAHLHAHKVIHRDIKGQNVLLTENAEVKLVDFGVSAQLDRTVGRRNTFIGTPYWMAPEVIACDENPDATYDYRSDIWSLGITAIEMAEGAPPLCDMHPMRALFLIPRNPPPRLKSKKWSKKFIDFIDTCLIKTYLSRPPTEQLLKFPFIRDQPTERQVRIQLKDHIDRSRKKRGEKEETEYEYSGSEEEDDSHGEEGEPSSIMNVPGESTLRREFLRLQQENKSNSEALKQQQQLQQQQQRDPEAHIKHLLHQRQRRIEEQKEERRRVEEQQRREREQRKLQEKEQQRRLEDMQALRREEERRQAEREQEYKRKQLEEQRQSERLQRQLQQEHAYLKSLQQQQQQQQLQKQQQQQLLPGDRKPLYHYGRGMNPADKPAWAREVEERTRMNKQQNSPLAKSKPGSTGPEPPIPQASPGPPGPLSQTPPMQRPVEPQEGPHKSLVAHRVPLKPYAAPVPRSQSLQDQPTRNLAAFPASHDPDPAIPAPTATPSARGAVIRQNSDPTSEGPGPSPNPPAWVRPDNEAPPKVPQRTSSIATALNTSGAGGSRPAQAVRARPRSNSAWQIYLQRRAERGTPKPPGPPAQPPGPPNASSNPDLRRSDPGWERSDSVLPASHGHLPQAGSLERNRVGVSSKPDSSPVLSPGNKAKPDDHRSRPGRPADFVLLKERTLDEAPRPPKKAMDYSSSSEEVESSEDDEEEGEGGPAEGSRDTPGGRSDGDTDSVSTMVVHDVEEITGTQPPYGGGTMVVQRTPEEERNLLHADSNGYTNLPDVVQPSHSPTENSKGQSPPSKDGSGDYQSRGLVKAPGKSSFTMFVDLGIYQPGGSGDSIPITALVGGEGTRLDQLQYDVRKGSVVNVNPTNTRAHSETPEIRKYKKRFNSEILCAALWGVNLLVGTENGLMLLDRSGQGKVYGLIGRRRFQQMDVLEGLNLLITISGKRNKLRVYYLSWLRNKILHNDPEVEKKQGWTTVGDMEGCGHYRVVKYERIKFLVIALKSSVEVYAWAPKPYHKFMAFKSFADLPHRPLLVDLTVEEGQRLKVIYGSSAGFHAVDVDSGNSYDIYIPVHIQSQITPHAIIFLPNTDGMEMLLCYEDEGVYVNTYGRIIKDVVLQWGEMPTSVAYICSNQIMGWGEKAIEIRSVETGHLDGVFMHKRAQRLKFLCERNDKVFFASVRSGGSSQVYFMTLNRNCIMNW
Chain of protein kinases of the Z-LYTE panel (Homo sapiens, UniProt Q04759) (Q04759 whole entry): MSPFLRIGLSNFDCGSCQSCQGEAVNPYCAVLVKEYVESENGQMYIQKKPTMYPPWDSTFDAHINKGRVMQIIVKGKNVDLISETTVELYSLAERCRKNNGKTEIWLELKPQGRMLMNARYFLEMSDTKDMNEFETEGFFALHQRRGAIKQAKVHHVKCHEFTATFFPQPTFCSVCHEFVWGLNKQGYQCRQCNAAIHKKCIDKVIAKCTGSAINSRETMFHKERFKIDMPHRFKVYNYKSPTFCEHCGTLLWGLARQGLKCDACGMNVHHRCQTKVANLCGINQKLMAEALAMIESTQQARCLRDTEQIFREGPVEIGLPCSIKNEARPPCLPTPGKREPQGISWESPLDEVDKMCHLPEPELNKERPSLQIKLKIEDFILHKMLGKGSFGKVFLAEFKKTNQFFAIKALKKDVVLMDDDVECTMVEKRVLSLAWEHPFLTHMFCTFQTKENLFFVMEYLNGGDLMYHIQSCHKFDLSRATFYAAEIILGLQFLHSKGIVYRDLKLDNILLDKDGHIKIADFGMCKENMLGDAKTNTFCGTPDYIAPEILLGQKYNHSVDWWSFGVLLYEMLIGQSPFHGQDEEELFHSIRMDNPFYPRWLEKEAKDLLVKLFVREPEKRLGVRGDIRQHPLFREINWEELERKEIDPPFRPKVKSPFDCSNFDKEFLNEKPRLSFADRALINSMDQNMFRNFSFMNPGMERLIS

`CCN1CCN(c2ccc(Nc3cc(Nc4cccc5c4N(C(C)=O)CC5)ccn3)cc2)CC1` [Compound 1938] was tested, and the inhibition at 1 µM ([1]; read-out: % Inhibition Point 1) was 8.55%, the inhibition at 1 µM ([1]; read-out: % Inhibition Point 2) was 8% and the inhibition at 1 µM ([1]; read-out: % Inhibition mean) was 8%. For the same compound, the inhibition at 1 µM ([2]; read-out: % Inhibition Point 1) was 19%, the inhibition at 1 µM ([2]; read-out: % Inhibition Point 2) was 25% and the inhibition at 1 µM ([2]; read-out: % Inhibition mean) was 22%. The inhibition at 1 µM ([3]; read-out: % Inhibition Point 1) was 28%, the inhibition at 1 µM ([3]; read-out: % Inhibition Point 2) was 31% and the inhibition at 1 µM ([3]; read-out: % Inhibition mean) was 30%. For the same compound, the inhibition at 1 µM ([4]; read-out: % Inhibition Point 1) was 12%, the inhibition at 1 µM ([4]; read-out: % Inhibition Point 2) was 6.62% and the inhibition at 1 µM ([4]; read-out: % Inhibition mean) was 9%. It also gave an inhibition at 1 µM ([5]; read-out: % Inhibition Point 1) of -0.0182%, an inhibition at 1 µM ([5]; read-out: % Inhibition Point 2) of -2.21% and an inhibition at 1 µM ([5]; read-out: % Inhibition mean) of -1.11%.
